Experimental data from paper PMC5736175, “Nicotinic alpha 7 receptor agonists EVP-6124 and BMS-933043, attenuate scopolamine-induced deficits in visuo-spatial paired associates learning” (PLoS ONE, 2017).
Several values for one entry are separate records, joined by “and”; a condition that tells them apart may be missing. Equal values may be shown once.

Experiment: Plasma concentration in vsPAL subjects immediately after completion of testing (LC-MS/MS)
Conditions: for concentration at 69.8 min: cynomolgus monkey, in vivo
Description: For all compounds, plasma pharmacokinetic studies were conducted in a separate cohort of cynomolgus monkeys (N = 2–3 subjects per dose) before beginning vsPAL testing to help guide dose selection. Blood samples were obtained with the animals awake and sitting in a primate chair. For most test sessions with BMS-933043 and EVP-6124, plasma samples were also taken from a subset of vsPAL subjects (N = 4–5) immediately after completion of testing (mean (SD) sample collection time = 69.8 (9.8) min post injection).
Plasma concentrations of test compounds were determined using LC-MS/MS assays. In brief, 50 μL plasma and sample containing compounds was extracted by protein precipitation method with 150 μL acetonitrile containing an internal standard. A 5 μL sample of supernatant was injected into the LC-MS/MS system. Analytes were separated by reversed phase chromatography and detection of each analyte was achieved through selected reaction monitoring mode of mass spectrometry. Samples were quantified by calculated peak area ratio of analyte and internal standard against a calibration curve.

c1cn(-c2cc(NC3=NC[C@@]4(CN5CCC4CC5)O3)ncn2)cn1 [BMS-933043, (2R)-N-(6-(1H-imidazol-1-yl)-4-pyrimidinyl)-4'H-spiro[4-azabicyclo[2.2.2]octane-2,5'-[1, 3]oxazol]-2'-amine]
nM total compound in plasma post session (0.03 mg/kg i.m., individual subjects): 14.6 nM and 11.9 nM and 13.1 nM | nM total compound in plasma post session (0.10 mg/kg i.m., individual subjects): 37.9 nM and 51.3 nM and 45.6 nM | nM total compound in plasma post session (0.30 mg/kg i.m., individual subjects): 156 nM and 134 nM and 143 nM | nM total compound in plasma post session (1.00 mg/kg i.m., individual subjects): 414 nM and 530 nM and 413 nM | concentration at 69.8 min (0.03 mg/kg, nM total compound in plasma post session, 0.03 mg/kg i.m., individual subjects): 13.4 nM | concentration at 69.8 min (0.03 mg/kg, nM total compound in plasma post session, 0.03 mg/kg i.m., mean 69.8 min post injection, group mean): 13.3 nM | concentration at 69.8 min (0.1 mg/kg, nM total compound in plasma post session, 0.10 mg/kg i.m., individual subjects): 56.3 nM | concentration at 69.8 min (0.1 mg/kg, nM total compound in plasma post session, 0.10 mg/kg i.m., mean 69.8 min post injection, group mean): 47.8 nM | concentration at 69.8 min (0.3 mg/kg, nM total compound in plasma post session, 0.30 mg/kg i.m., individual subjects): 125 nM | concentration at 69.8 min (0.3 mg/kg, nM total compound in plasma post session, 0.30 mg/kg i.m., mean 69.8 min post injection, group mean): 140 nM | concentration at 69.8 min (1 mg/kg, nM total compound in plasma post session, 1.00 mg/kg i.m., individual subjects): 614 nM | concentration at 69.8 min (1 mg/kg, nM total compound in plasma post session, 1.00 mg/kg i.m., mean 69.8 min post injection, group mean): 493 nM | concentration at 69.8 min (1 mg/kg, plasma concentration at which efficacy was lost, scopolamine vsPAL model): 493 nM | concentration at 69.8 min (mean plasma concentration at which improved eventual accuracy was observed, experimental subjects on completion of behavioral testing, efficacious doses): 13.3 to 140 nM
